Test results reported in ChEMBL document CHEMBL2401634, “Discovery of novel indolinone-based, potent, selective and brain penetrant inhibitors of LRRK2” (Bioorg Med Chem Lett, 2013).
Values after ≈ are worked out from the molar mass of the structure shown. Active and inactive are the calls of the source. No cut-off for these calls is given here.

Columns and labels:
[1] = target: Tyrosine-protein kinase Lck (Homo sapiens, UniProt P06239); test: Inhibition of LCK (unknown origin)
[2] = target: Vascular endothelial growth factor receptor 2 (Homo sapiens, UniProt P35968); test: Inhibition of KDR (unknown origin)
Chain of Vascular endothelial growth factor receptor 2 (P35968 whole entry): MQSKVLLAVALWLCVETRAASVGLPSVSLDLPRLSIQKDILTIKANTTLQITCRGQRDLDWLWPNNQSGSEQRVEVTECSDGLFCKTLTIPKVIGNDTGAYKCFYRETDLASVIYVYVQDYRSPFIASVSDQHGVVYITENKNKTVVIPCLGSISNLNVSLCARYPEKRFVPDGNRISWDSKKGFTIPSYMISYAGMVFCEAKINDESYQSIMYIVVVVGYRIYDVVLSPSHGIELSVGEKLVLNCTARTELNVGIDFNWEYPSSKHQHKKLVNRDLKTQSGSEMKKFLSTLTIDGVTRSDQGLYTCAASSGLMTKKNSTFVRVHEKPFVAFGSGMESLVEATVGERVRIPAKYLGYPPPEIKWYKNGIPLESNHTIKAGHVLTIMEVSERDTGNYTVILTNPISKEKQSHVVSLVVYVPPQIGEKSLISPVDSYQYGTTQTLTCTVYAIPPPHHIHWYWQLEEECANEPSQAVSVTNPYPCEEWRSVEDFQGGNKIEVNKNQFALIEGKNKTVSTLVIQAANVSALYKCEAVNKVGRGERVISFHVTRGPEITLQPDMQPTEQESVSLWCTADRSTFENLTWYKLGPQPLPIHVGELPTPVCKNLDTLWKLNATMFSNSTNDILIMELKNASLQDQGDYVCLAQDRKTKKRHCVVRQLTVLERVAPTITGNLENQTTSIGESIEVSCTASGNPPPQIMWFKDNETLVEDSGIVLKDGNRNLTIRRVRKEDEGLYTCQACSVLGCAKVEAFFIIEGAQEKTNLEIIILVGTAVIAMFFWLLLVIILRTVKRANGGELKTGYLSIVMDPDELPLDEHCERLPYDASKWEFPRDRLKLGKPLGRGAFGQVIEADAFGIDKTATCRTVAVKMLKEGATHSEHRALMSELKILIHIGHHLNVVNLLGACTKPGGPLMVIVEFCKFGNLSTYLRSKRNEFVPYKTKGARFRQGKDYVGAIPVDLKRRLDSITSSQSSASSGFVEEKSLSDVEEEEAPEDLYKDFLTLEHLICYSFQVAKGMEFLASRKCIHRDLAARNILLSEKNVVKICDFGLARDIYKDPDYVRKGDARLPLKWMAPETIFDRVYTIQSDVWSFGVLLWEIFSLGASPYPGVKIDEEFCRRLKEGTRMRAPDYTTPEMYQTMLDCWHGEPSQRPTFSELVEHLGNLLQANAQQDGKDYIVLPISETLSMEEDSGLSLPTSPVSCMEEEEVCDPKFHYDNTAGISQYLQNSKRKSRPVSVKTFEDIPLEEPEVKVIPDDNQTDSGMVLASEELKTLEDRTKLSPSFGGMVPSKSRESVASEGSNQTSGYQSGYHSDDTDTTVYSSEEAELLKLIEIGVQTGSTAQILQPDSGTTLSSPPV

[3] = target: ALK tyrosine kinase receptor (Homo sapiens, UniProt Q9UM73); test: Inhibition of ALK (unknown origin)
[4] = target: Leucine-rich repeat serine/threonine-protein kinase 2 (Homo sapiens, UniProt Q5S007); test: Inhibition of human LRRK2 (1885 to 2132) using 5-Fluo-Ahx-RLGRDKYKTLRQIRQGNTK-OH as substrate after 60 mins by fluorescence assay
Chain of Leucine-rich repeat serine/threonine-protein kinase 2 (Q5S007 whole entry): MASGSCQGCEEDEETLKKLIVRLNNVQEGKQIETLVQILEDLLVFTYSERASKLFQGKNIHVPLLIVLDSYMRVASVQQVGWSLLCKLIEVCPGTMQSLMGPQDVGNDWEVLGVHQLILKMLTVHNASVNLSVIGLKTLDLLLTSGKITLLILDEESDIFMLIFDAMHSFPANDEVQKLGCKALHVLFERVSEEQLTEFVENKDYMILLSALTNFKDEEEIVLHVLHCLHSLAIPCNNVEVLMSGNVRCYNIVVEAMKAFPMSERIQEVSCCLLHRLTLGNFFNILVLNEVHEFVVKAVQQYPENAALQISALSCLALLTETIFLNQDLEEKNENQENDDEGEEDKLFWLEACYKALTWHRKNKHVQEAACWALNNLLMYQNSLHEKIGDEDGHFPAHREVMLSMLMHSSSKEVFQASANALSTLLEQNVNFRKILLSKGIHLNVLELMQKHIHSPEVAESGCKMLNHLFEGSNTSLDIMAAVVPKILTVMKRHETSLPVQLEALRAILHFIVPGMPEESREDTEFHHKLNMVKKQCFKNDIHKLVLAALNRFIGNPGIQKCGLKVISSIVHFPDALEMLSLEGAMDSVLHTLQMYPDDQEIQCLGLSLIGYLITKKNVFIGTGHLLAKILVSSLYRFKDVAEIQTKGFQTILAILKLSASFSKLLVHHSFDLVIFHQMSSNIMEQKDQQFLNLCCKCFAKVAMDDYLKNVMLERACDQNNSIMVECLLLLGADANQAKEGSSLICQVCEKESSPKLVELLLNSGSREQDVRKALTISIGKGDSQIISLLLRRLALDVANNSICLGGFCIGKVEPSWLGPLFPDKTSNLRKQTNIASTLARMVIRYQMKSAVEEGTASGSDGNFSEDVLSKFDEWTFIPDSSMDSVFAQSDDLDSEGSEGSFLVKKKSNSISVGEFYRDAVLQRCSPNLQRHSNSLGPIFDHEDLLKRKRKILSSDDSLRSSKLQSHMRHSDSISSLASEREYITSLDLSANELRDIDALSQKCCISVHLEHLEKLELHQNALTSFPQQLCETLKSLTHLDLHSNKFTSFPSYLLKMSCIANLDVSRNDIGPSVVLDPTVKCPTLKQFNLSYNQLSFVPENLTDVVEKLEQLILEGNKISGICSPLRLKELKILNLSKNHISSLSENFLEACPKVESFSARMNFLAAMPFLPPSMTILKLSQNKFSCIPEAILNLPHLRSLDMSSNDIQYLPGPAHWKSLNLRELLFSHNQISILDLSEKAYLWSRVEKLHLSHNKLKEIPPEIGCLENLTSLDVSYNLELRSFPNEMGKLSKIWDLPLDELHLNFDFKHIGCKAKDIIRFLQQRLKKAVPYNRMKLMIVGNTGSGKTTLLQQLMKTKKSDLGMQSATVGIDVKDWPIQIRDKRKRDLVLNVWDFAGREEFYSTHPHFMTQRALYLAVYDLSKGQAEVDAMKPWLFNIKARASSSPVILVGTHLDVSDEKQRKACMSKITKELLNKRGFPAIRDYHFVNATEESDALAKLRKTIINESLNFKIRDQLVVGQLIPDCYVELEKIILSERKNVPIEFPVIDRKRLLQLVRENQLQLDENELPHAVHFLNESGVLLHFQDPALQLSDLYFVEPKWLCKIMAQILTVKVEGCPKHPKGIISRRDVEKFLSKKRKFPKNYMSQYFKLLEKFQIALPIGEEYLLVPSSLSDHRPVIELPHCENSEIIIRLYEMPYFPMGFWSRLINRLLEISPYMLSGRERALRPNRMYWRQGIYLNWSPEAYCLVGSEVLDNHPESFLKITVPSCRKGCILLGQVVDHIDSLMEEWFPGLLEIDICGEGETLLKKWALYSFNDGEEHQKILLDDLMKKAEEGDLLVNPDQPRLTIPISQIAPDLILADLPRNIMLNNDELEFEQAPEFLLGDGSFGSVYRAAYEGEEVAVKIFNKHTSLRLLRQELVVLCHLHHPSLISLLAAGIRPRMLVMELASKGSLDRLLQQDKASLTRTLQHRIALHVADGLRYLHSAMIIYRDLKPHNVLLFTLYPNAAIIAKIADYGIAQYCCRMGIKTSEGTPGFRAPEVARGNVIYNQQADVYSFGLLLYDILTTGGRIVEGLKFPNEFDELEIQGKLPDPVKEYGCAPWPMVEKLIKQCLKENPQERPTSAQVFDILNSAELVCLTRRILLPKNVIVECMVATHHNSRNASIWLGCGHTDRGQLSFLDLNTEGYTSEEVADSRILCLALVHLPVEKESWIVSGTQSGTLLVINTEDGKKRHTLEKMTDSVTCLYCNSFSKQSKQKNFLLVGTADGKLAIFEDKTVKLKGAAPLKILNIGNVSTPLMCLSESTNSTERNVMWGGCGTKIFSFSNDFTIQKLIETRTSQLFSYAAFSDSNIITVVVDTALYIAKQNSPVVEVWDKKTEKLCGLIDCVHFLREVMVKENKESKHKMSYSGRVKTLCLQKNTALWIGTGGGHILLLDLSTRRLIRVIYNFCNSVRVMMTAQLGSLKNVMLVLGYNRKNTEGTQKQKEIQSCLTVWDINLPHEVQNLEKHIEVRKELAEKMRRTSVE

[5] = target: Proto-oncogene tyrosine-protein kinase receptor Ret (Homo sapiens, UniProt P07949); test: Inhibition of RET (unknown origin)
Chain of Proto-oncogene tyrosine-protein kinase receptor Ret (P07949 whole entry): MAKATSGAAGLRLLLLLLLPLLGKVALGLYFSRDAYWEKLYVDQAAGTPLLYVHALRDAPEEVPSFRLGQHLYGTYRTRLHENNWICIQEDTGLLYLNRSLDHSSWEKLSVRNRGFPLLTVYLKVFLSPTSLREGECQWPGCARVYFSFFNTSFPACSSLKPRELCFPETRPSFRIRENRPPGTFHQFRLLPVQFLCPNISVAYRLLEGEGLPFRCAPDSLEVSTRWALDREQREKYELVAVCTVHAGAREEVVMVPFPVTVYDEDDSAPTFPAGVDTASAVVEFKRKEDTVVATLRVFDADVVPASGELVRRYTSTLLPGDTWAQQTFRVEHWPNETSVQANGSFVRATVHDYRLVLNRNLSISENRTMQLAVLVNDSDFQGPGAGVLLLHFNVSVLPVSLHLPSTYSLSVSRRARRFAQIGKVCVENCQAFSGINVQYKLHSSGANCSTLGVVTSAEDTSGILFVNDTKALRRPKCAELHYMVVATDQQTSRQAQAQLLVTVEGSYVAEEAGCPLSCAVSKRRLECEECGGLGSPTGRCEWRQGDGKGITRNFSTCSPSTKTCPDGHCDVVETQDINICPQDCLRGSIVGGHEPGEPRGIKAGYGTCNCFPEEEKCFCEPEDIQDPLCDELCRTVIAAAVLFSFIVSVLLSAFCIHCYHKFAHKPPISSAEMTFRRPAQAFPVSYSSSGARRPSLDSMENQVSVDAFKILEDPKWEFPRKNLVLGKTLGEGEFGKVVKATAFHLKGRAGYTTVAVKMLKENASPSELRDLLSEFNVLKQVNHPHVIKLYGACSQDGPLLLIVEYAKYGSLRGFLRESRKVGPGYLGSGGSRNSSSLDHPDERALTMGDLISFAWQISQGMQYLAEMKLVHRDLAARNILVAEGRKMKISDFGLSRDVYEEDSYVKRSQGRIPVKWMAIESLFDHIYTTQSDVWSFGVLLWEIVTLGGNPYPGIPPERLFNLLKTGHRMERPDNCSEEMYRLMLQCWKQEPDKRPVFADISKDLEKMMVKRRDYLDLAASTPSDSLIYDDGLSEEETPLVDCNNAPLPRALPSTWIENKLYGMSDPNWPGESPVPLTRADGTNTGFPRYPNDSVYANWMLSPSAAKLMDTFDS

[6] = target: Platelet-derived growth factor receptor alpha (Homo sapiens, UniProt P16234); test: Inhibition of PDGFRa (unknown origin)
Mus musculus [7] = test: Binding affinity to LRRK2 in C57BL/6 mouse brain at 90 mg/kg, iv after 1 hr by pull down assay; format: functional, organism-based; design: dose 90 mg/kg
[8] = target: Leucine-rich repeat serine/threonine-protein kinase 2 (Mus musculus) (UniProt Q5S006); test: Binding affinity to LRRK2 in C57BL/6 mouse brain at 1 uM after 30 mins by competition pull down assay; format: tissue-based
[9] = Solubility of the compound at pH 6.8; format: physicochemical; conditions: buffer
[10] = target: Leucine-rich repeat serine/threonine-protein kinase 2 (Mus musculus) (UniProt Q5S006); test: Binding affinity to LRRK2 in mouse C2C12 cells at 1 uM after 30 mins by competition pull down assay; format: cell-based
Mus musculus [11] = test: Binding affinity to LRRK2 in po dosed C57BL/6 mouse brain after 2 hrs by pull down assay; format: functional, organism-based
Mus musculus [12] = test: Binding affinity to LRRK2 in C57BL/6 mouse brain at 10 to 180 mg/kg, po after 2 hrs by pull down assay relative to vehicle-treated control; format: functional, organism-based

Row | IC50 [1] [nM] | IC50 [2] [nM] | IC50 [3] [nM] | IC50 [4] [nM] | IC50 [5] [nM] | IC50 [6] [nM] | Activity [8] | solubility [9] [µg/mL] | Activity [10] | Activity (Mus musculus [11]) | SMILES | Activity (Mus musculus [7]) | Activity (Mus musculus [12])
1 | 1000 | 60 | > 10000 | < 3 | 73 | 31 | – | – | – | – | CC(=O)N1CCc2[nH]c(/C=C3\C(=O)Nc4ccc([N+](=O)[O-])cc43)cc2C1 | – | –
2 | 390 | 16 | 1400 | 7 | 75 | 540 | – | – | – | – | COc1ccc2c(c1)/C(=C/c1cc3c([nH]1)CCN(C(=O)c1cnoc1C)C3)C(=O)N2 | – | –
3 | 50 | 6 | 550 | 9 | 6 | 60 | Active | 15 (≈ 35.6 µM) | Active | Dose-dependent effect | COc1ccc2c(c1)/C(=C/c1cc3c([nH]1)CCN(C(=O)N1CCN(C)CC1)C3)C(=O)N2 | inactive | Active
4 | 120 | 20 | 1600 | 7 | 4 | < 3 | – | – | – | – | CC(=O)N1CCc2[nH]c(/C=C3\C(=O)Nc4ccc(C#N)cc43)cc2C1 | – | –
5 | 330 | 7 | 210 | 4 | 25 | 91 | – | – | – | – | CC(=O)Nc1ccc2c(c1)/C(=C/c1cc3c([nH]1)CCN(C(=O)N1CCOCC1)C3)C(=O)N2 | – | –
6 | 1100 | 900 | 3300 | 4 | 150 | 1700 | – | < 1 | – | – | CC(=O)N1CCc2[nH]c(/C=C3\C(=O)Nc4ccc(OC(C)C)cc43)cc2C1 | – | –
7 | 140 | 8 | 370 | 11 | 4 | 120 | – | – | – | – | COc1ccc2c(c1)/C(=C/c1cc3c([nH]1)CCN(C(=O)CCN)C3)C(=O)N2 | – | –
8 | – | – | – | 150 | – | – | – | – | – | – | COc1ccc2c(c1)/C(=C/c1cc3c([nH]1)CCN(C(=O)N1CCOCC1)C3)C(=O)N2C | – | –
9 | 120 | 5 | 660 | 3 | 25 | 150 | – | – | – | – | COc1ccc2c(c1)/C(=C/c1cc3c([nH]1)CCN(C(=O)N1CCOCC1)C3)C(=O)N2 | – | –
10 | 7 | 3 | 76 | < 3 | 5 | 13 | – | – | – | – | CN1CCC(Nc2ccc3c(c2)/C(=C/c2cc4c([nH]2)CCN(C(=O)N2CCOCC2)C4)C(=O)N3)CC1 | – | –
11 | 6050 | 210 | 1500 | 14 | 54 | 250 | – | – | – | – | COc1ccc2c(c1)/C(=C/c1cc3c([nH]1)CCN(C(C)=O)C3)C(=O)N2 | – | –
12 | 180 | 83 | > 10000 | < 3 | 140 | 46 | – | – | – | – | O=C1Nc2ccc(C(F)(F)F)cc2/C1=C/c1cc2c([nH]1)CCN(C(=O)N1CCOCC1)C2 | – | –
13 | 1100 | 87 | > 10000 | 8 | 34 | – | – | – | – | – | COc1ccc2c(c1)/C(=C/c1[nH]c3c(c1Cl)CN(C(C)=O)CC3)C(=O)N2 | – | –
14 | < 1000 | < 1000 | < 1000 | 46 | < 1000 | < 1000 | – | – | – | – | COc1ccc2c(c1)/C(=C/c1[nH]c(C)c(C(=O)NCCCN)c1C)C(=O)N2 | – | –
15 | 360 | 320 | 9500 | 31 | 300 | 60 | – | – | – | – | CC(=O)N1CCc2[nH]c(/C=C3\C(=O)Nc4ccc(C(F)(F)F)cc43)cc2C1 | – | –
